Measurements taken from ChEMBL document CHEMBL5291721, “A preclinical secondary pharmacology resource illuminates target-adverse drug reaction associations of marketed drugs” (Nat Commun, 2023).

Experiments:
[1] = biological target: T1, Cholecystokinin receptor type A (Homo sapiens, UniProt P32238)
T1 sequence (P32238 whole entry): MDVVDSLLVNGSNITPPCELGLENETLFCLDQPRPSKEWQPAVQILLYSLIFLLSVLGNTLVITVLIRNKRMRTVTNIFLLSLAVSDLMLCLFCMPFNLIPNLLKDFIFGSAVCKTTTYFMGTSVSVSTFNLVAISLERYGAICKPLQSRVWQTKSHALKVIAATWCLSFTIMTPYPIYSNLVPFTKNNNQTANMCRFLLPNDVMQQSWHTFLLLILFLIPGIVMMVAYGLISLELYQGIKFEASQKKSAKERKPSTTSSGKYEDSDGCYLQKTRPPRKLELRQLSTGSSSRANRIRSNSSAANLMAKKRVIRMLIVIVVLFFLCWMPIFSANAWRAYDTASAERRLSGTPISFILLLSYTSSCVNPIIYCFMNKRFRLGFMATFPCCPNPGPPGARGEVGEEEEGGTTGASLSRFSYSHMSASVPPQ

[2] = biological target: Muscarinic acetylcholine receptor M3 (Homo sapiens, UniProt P20309)
[3] = biological target: Delta-type opioid receptor (Homo sapiens, UniProt P41143)
[4] = biological target: T2, 5-hydroxytryptamine receptor 3A (Homo sapiens, UniProt P46098); type: functional
T2 sequence (P46098 whole entry): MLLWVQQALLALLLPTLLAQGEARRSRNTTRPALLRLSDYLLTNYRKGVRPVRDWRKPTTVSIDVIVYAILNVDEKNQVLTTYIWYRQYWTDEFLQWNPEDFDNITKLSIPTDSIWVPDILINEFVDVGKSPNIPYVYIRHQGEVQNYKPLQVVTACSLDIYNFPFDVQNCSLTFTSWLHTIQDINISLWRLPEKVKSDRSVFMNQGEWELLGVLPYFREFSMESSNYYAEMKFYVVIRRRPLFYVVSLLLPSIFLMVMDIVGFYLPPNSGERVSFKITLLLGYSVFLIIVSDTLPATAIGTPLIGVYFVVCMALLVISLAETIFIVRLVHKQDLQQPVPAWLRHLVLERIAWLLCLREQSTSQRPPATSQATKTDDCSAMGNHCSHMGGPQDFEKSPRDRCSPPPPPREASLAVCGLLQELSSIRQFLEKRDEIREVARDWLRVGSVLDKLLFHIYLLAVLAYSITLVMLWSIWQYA

[5] = biological target: T3, Thromboxane A2 receptor (Homo sapiens, UniProt P21731)
T3 sequence (P21731 whole entry): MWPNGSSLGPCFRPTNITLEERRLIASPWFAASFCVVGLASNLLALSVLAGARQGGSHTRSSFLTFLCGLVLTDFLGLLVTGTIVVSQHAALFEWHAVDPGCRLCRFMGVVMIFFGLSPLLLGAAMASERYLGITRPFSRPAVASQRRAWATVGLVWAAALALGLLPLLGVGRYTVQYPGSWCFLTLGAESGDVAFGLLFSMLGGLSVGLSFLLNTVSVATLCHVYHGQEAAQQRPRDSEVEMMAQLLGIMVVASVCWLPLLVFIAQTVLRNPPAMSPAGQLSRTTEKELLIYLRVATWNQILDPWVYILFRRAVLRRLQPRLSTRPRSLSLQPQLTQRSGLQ

[6] = biological target: Beta-1 adrenergic receptor (Homo sapiens, UniProt P08588); type: functional
[7] = biological target: T4, Adenosine receptor A3 (Homo sapiens, UniProt P0DMS8)
T4 sequence (P0DMS8 whole entry): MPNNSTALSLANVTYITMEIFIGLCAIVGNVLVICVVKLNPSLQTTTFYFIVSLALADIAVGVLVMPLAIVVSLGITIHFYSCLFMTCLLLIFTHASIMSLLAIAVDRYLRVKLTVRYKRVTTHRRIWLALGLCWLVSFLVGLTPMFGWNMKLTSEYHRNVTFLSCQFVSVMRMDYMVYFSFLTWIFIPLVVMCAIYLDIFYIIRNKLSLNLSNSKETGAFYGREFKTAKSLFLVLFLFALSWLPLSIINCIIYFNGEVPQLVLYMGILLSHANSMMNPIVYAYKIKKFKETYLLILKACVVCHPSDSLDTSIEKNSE

[8] = biological target: Kappa-type opioid receptor (Homo sapiens, UniProt P41145)
[9] = biological target: Sodium-dependent noradrenaline transporter (Homo sapiens, UniProt P23975)
[10] = biological target: T5, Glucocorticoid receptor (Homo sapiens, UniProt P04150)
T5 sequence (P04150 whole entry): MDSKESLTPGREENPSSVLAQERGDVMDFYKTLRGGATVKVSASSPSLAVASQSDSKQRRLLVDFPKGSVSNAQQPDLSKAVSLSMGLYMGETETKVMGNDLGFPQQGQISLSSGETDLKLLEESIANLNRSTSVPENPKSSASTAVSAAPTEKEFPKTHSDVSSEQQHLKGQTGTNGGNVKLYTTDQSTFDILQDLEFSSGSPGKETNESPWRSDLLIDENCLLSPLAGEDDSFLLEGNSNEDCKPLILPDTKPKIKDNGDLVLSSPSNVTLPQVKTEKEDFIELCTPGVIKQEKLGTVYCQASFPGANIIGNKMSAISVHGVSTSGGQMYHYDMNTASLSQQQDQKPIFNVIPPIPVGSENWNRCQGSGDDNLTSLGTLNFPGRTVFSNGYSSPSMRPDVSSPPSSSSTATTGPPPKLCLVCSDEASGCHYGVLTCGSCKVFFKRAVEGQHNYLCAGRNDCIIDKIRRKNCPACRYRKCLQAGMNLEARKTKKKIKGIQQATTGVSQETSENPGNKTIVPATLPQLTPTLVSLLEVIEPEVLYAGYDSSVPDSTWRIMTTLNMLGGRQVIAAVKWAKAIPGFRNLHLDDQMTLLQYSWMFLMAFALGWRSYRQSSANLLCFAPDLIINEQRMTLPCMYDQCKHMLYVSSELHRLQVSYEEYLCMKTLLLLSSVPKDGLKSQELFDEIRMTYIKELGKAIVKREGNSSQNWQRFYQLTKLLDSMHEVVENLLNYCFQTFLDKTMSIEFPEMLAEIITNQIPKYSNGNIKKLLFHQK
Also: assay procedure not described here.

Sequence of Beta-1 adrenergic receptor (P08588 whole entry): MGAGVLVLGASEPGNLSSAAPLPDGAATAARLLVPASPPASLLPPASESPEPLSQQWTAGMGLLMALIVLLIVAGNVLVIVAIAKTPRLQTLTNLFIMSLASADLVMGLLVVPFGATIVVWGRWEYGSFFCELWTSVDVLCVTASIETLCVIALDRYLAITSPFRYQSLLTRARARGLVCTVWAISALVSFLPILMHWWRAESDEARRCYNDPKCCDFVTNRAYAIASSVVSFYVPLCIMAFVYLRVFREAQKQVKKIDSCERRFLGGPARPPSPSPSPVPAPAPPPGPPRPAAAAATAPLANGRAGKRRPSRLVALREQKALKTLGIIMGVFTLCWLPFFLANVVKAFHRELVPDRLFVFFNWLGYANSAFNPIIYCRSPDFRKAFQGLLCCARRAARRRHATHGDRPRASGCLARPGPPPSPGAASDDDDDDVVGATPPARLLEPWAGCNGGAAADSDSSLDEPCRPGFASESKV
Sequence of Delta-type opioid receptor (P41143 whole entry): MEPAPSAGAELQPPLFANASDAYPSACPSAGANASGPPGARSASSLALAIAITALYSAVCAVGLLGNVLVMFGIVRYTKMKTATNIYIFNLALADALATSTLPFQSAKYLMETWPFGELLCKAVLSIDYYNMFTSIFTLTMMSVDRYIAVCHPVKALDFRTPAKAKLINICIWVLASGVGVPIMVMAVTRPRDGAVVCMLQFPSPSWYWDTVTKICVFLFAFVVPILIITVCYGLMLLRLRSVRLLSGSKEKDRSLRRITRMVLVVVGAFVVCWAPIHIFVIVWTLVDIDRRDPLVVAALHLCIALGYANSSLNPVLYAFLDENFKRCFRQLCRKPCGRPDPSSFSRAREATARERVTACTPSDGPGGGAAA
Sequence of Muscarinic acetylcholine receptor M3 (P20309 whole entry): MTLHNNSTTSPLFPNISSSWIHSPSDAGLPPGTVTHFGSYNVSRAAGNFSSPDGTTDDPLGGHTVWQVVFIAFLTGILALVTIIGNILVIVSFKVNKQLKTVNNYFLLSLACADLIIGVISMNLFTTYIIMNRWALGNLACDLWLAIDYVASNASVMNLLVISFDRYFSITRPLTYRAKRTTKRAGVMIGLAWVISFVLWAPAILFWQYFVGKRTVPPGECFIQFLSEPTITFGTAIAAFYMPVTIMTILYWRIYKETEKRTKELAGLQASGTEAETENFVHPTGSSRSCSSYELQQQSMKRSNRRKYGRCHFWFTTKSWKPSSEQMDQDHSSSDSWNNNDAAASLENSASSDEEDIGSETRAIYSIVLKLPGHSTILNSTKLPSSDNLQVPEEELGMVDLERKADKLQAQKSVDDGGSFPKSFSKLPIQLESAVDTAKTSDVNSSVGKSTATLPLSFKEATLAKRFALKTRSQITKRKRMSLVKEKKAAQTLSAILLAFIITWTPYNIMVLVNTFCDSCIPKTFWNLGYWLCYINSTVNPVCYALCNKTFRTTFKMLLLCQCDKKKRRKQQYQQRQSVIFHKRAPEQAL
Sequence of Sodium-dependent noradrenaline transporter (P23975 whole entry): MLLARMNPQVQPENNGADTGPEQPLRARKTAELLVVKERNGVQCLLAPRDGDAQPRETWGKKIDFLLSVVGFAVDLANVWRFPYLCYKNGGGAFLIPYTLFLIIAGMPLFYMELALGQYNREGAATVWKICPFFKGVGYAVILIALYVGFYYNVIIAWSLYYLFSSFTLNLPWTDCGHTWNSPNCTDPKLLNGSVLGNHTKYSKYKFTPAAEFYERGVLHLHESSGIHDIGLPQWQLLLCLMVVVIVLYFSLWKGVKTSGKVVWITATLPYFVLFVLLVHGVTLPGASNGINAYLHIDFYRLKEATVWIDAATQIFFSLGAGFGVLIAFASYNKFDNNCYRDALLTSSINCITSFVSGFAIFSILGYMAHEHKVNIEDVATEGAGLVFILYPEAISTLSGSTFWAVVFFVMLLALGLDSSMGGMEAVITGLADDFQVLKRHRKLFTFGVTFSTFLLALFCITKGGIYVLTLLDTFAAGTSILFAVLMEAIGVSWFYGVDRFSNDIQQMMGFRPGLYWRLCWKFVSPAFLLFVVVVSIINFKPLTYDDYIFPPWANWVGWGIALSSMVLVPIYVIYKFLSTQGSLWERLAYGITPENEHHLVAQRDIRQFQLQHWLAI
Sequence of Kappa-type opioid receptor (P41145 whole entry): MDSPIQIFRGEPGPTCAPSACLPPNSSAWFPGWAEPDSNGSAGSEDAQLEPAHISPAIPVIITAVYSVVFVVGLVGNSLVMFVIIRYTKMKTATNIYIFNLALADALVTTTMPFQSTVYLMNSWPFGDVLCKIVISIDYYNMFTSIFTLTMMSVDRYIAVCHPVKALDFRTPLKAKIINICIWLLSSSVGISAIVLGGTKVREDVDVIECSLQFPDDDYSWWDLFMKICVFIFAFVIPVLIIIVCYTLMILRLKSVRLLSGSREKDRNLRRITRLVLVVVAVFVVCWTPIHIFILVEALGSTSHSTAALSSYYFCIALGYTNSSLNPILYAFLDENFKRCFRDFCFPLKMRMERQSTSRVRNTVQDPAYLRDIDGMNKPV

Row | Compound | AC50 [1] | AC50 [2] | AC50 [3] | AC50 [4] | AC50 [5] | AC50 [6] | AC50 [7] | AC50 [8] | AC50 [9] | AC50 [10]
1 | NS(=O)(=O)c1cc2c(cc1C(F)(F)F)NC(Cc1ccccc1)NS2(=O)=O (centres undefined) [BENDROFLUMETHIAZIDE] | > 10 µM | > 30 µM | > 30 µM | > 30 µM | > 10 µM | > 10 µM | > 10 µM | > 10 µM | > 30 µM | 
2 | CCC(=O)OCC(=O)[C@@]1(OC(=O)CC)[C@@H](C)C[C@H]2[C@@H]3CCC4=CC(=O)C=C[C@]4(C)[C@@]3(F)[C@@H](O)C[C@@]21C [BETAMETHASONE DIPROPIONATE] | > 30 µM | > 30 µM |  | > 30 µM | > 30 µM | > 30 µM | 24 µM | > 30 µM | > 30 µM | 
3 | CCCCC1(CC)C(=O)NC(=O)NC1=O [BUTETHAL] | > 30 µM | > 30 µM | > 30 µM | > 30 µM |  | > 30 µM | > 30 µM | > 30 µM | > 30 µM | > 30 µM
4 | CCOC(=O)NNc1ccc(N(CC)CC(C)O)nn1 (centres undefined) [CADRALAZINE] | > 30 µM | > 30 µM | > 30 µM | > 30 µM | > 30 µM | > 30 µM | > 30 µM | > 30 µM | > 30 µM | 
5 | CCCC(C)(COC(N)=O)COC(=O)NC(C)C (centres undefined) [CARISOPRODOL] | > 30 µM | > 10 µM | > 30 µM | > 30 µM | > 30 µM | > 10 µM | > 30 µM | > 10 µM | > 10 µM | 
6 | CO[C@@]1(NC(=O)Cc2cccs2)C(=O)N2C(C(=O)O)=C(COC(N)=O)CS[C@@H]21 [CEFOXITIN] | > 30 µM | > 30 µM | > 30 µM | > 30 µM |  | > 30 µM | > 30 µM | > 30 µM | > 30 µM | 
7 | CCN(CC)CCOC(=O)c1ccc(N)cc1Cl [CHLOROPROCAINE] | > 30 µM | 18 µM | > 30 µM | 11 µM |  | > 30 µM | > 30 µM | > 30 µM | > 30 µM | > 30 µM
8 | CC(C)c1cc2c(cc1S(=O)(=O)O)[C@@]1(C)CCC[C@@](C)(C(=O)O)[C@@H]1CC2 [ECABET] | > 30 µM | > 30 µM | > 30 µM | > 30 µM | > 30 µM | > 30 µM | > 30 µM | 19 µM | > 30 µM | 
9 | O=C(O)c1ccccc1OP(=O)(O)O [FOSFOSAL] | > 30 µM | > 30 µM | > 30 µM | > 30 µM |  | > 30 µM | > 30 µM | > 30 µM | > 30 µM | > 30 µM
10 | CC1(C)C(/C=C/C=C/C=C/C=C2\N(CCCCS(=O)(=O)O)c3ccc4ccccc4c3C2(C)C)=[N+](CCCCS(=O)(=O)[O-])c2ccc3ccccc3c21 [INDOCYANINE GREEN ACID FORM] | 19 µM | 13 µM | 9.7 µM | 13 µM |  | 9.4 µM | 3 µM | 13 µM | 5.2 µM | > 30 µM
11 | CCCC[C@H](C)C[C@H](O)/C=C/[C@H]1[C@H](O)CC(=O)[C@@H]1CCCC/C=C/C(=O)O [LIMAPROST] | > 30 µM | > 30 µM | > 30 µM | > 30 µM |  | > 30 µM | > 30 µM | > 30 µM | > 30 µM | > 30 µM
12 | Cc1ccc(NC(=O)C2(c3ccc4c(c3)OC(F)(F)O4)CC2)nc1-c1cccc(C(=O)O)c1 [LUMACAFTOR] | > 30 µM | > 30 µM | > 30 µM | > 30 µM |  | > 30 µM | 15 µM | > 30 µM | > 30 µM | > 30 µM
13 | CN(c1nccc(=O)[nH]1)C1CCN(c2nc3ccccc3n2Cc2ccc(F)cc2)CC1 [MIZOLASTINE] | > 30 µM | > 30 µM | > 30 µM | > 30 µM | > 30 µM | > 30 µM | > 30 µM | > 30 µM | > 30 µM | 
14 | O=C1Nc2ccc(Cl)cc2C(c2ccccc2)=NC1O (centres undefined) [OXAZEPAM] | > 30 µM | > 10 µM | > 10 µM | > 10 µM | > 30 µM | > 10 µM | > 30 µM | > 10 µM | > 10 µM | 
15 | Cc1ccc(=O)n(-c2ccccc2)c1 [PIRFENIDONE] | > 30 µM | > 30 µM | > 30 µM | > 30 µM | > 30 µM | > 30 µM | > 30 µM | > 30 µM | > 30 µM | 
16 | [H]/N=C(/N)N[C@H]1[C@H](O)[C@@H](O)[C@H](O[C@@H]2O[C@@H](C)[C@](O)(C=O)[C@H]2O[C@@H]2O[C@@H](CO)[C@H](O)[C@@H](O)[C@@H]2NC)[C@@H](N/C(N)=N\[H])[C@@H]1O [STREPTOMYCIN] | > 30 µM |  | > 30 µM | > 30 µM | > 30 µM | > 30 µM | > 30 µM | > 30 µM | > 30 µM | > 30 µM
17 | COc1c(O[C@@H]2O[C@H](CO)[C@@H](O)[C@H](O)[C@H]2O)cc2c(c1OC)-c1ccc(SC)c(=O)cc1[C@@H](NC(C)=O)CC2 [THIOCOLCHICOSIDE] | > 30 µM | > 30 µM | > 30 µM | > 30 µM | > 30 µM | > 30 µM | > 30 µM | > 30 µM | > 30 µM | 
18 | Cc1cccc(N(C)C(=S)Oc2ccc3ccccc3c2)c1 [TOLNAFTATE] | > 10 µM |  | > 30 µM | > 30 µM | > 10 µM | > 10 µM | > 10 µM | > 10 µM | > 10 µM | > 30 µM
19 | COLISTIN |  | > 30 µM | > 30 µM | > 30 µM |  |  |  | > 30 µM |  | 
